Entries after “also recorded” stand apart in the source; their conditions may differ. Where two headings read alike, the source gives them in different places.
Assays:
[1] = Hygroscopicity study by Dynamic Vapour Sorption (DVS) profiles; assay type: physicochemical; details: for moisture content at 25% RH / moisture content at 55% RH / moisture content at 75% RH (variation in the moisture content): DVS sorption isotherm at 25° C.
Method: Hygroscopicity studies of salts were carried out by preparation of Dynamic Vapour Sorption (DVS) profiles, with a TA instrument Q5000 apparatus. After an initial stabilization period (samples are pre-dried at 60° C. under vacuum), isotherms (at 25° C.) were obtained for each sample: a moisture sorption from 0 to 95% relative humidity (RH) and moisture desorption from 95% RH to dryness. Both isotherms were performed in 5% and 10% humidity steps.
The relative humidity (RH) was controlled by a mixture of wet and dry nitrogen stream. The RH was held constant until the equilibrium had been obtained (constant weight) or until the maximum time has been reached, before changing the RH to the next level.

[2] = Oral bioavailability assay: plasma pharmacokinetics after single IV and PO administration; details: male SD rats
Method: (§1) Animals were divided into two groups: Group 1 (IV: 1 mg/kg) and Group 2 (PO: 5 mg/kg). […] The blood samples were collected from set of three rats at each time point in labeled micro centrifuge tube containing K2EDTA solution as anticoagulant at Pre-dose, 0.083, 0.25, 0.5, 1, 2, 4, 8 and 24 hr (IV) and Pre-dose, 0.25, 0.5, 1, 2, 4, 6, 8 and 24 hr (PO). Plasma samples were separated by centrifugation of whole blood and stored below −70±10° C. until bioanalysis. All samples were processed for analysis by protein precipitation using acetonitrile and analyzed with fit-for-purpose LC-MS/MS method (LLOQ=1.00 ng/ml). Pharmacokinetic parameters were calculated using the non-compartmental analysis tool of Phoenix WinNonlin® (Version 6.3).
(§2) AUC last refers to the area under the curve from the time of dosing to the time of last observation that is greater than the limit of quantitation.
(§3) Clearance refers to the measurement of the ability of the body to remove drug from the plasma, and is calculated from the intravenous dosing.
(§4) F % refers to the bioavailability. The systemic availability of a compound after oral administration is calculated using the following equation: F(%)=(AUClast PO×Dose IV/AUClast IV×Dose PO)×100

[3] = Stability study under forced conditions (one week at 40° C. and 70% RH, XRPD check); assay type: physicochemical
Method: Stability studies under forced conditions were carried out by keeping the product under study for one week at 40° C. and 70% RH. Salts were analyzed by XRPD to check any change in the crystalline form.

[4] = Solubility screen assay (nephelometry); details: 37° C.
Method: (§5) Solubility screen assays were carried out as following: stock solutions (10^−2M) of the assayed compounds were diluted to decreased molarity from 500 μM to 0.256 nM, in 384 well transparent plate (Greiner 781101) with 5% DMSO: 95% PBS buffer. Samples were incubated at 37° C. and read after 2 and 4 hours in a NEPHELOstar Plus (BMGLABTECH).

[5] = physchem; details: 37 °C, aqueous with cosolvent or surfactant or cyclodextrin, kinetic from dmso stock
Method: as §5

[6] = in vivo; details: male, SD, rat
Method: as §1, §2, §3, §4

[7] = listed as (1R-3S)-3-(5-cyano-4-phenyl-1,3-thiazol-2-ylcarbamoyl)cyclopentane carboxylic ac
[8] = DVS, usual drug storage conditions (<75% RH)

N#Cc1sc(NC(=O)[C@H]2CC[C@@H](C(=O)O)C2)nc1-c1ccccc1 [(1R,3S)-3-(5-cyano-4-phenyl-1,3-thiazol-2-ylcarbamoyl)cyclop] [1,3-dihydroxy-2-(hydroxymethyl)propan-2-aminium (1R,3S)-3-((5-cyano-4-phenylthiazol-2-yl)carbamoyl)cyclopentane-1-carboxylate]
moisture content at 25% RH [1, 7]: 0.0722% | moisture content at 55% RH [1, 7]: 0.1165% | moisture content at 75% RH (variation in the moisture content) [1, 7]: 0.2096% | moisture content at 75% RH (variation in the moisture content) ([1]; listed as tromethamine salt): 0.17% | hygroscopicity (result in words) [1, 8]: less hygroscopic than the free acid form | hygroscopicity (result in words) ([1]; DVS, usual drug storage conditions (<75% RH), listed as tromethamine salt): less hygroscopic than free acid | AUC last ([2]; iv 1 mg/Kg, plasma, 1 mg/kg): 2373.87 ng·h/mL | clearance ([2]; iv 1 mg/Kg, 1 mg/kg): 7.11 mL/min/kg | stability under forced conditions (result in words) [3]: no cristallinity changes, colour or any other change in the aspect were observed; also recorded: stable solid, even under forced stability conditions | solubility compared with other salts and free acid [4]: higher solubility compared to others salts

N#Cc1sc(NC(=O)[C@H]2CC[C@@H](C(=O)O)C2)nc1-c1ccccc1 [(1R,3S)-3-(5-cyano-4-phenyl-1,3-thiazol-2-ylcarbamoyl)cyclop] [(1R,3S)-3-(5-cyano-4-phenyl-1,3-thiazol-2-ylcarbamoyl)cyclopentane carboxylic acid]
moisture content at 25% RH [1]: 0.1283% | moisture content at 55% RH [1]: 0.3008% | moisture content at 75% RH (variation in the moisture content) [1]: 0.4369% | moisture content at 75% RH (variation in the moisture content) ([1]; listed as free acid): 0.43% | hygroscopicity (result in words) [1, 8]: exhibits certain levels of hygroscopicity

N#Cc1sc(NC(=O)[C@H]2CC[C@@H](C(=O)O)C2)nc1-c1ccccc1 [(1R,3S)-3-(5-cyano-4-phenyl-1,3-thiazol-2-ylcarbamoyl)cyclopentane carboxylic acid]
AUC(0-t) ([2]; male, SD, rat, plasma, iv, 1 mg/kg, AUC last, iv 1 mg/Kg): 2200 ng·h/mL | clearance ([2]; male, SD, rat, plasma, iv, 1 mg/kg, Clearance, iv 1 mg/Kg): 6.3 mL/min/kg

CCNCC.N#Cc1sc(NC(=O)[C@H]2CC[C@@H](C(=O)O)C2)nc1-c1ccccc1 [Diethylammonium (1R,3S)-3-((5-cyano-4-phenylthiazol-2-yl)carbamoyl)cyclopentane-1-carboxylate]
clearance ([2]; iv 1 mg/Kg): 5.02 mL/min/kg | AUC last ([2]; iv 1 mg/Kg, plasma): 3383.00 ng·h/mL | F % (bioavailability) ([2]; po 5 mg/Kg vs iv 1 mg/Kg, from AUClast): 68% | AUC last ([2]; po 5 mg/Kg, plasma): 11580.30 ng·h/mL | Cmax ([2]; po 5 mg/Kg, solution in normal saline, plasma): 5906.53 ng/mL | stability under forced conditions (result in words) [3]: showed some degradation

N#Cc1sc(NC(=O)[C@H]2CC[C@@H](C(=O)[O-])C2)nc1-c1ccccc1.[Na+] [Sodium (1R,3S)-3-((5-cyano-4-phenylthiazol-2-yl)carbamoyl)cyclopentane-1-carboxylate]
solubility [5]: 36.3 µM | hygroscopicity (result in words) [1, 8]: showed evident hygroscopicity | AUC(0-t) ([6]; iv, 1 mg/kg): 5090 ng·h/mL | clearance ([6]; iv, 1 mg/kg): 3.31 mL/min/kg | AUC(0-t) ([6]; po, 5 mg/kg): 21600 ng·h/mL | Cmax ([6]; po, 5 mg/kg): 13200 ng/mL | bioavailability ([6]; po, 5 mg/kg): 85% | stability under forced conditions (result in words) [3]: did not have good stability, changed color

Magnesium (1R,3S)-3-((5-cyano-4-phenylthiazol-2-yl)carbamoyl)cyclopentane-1-carboxylate
hygroscopicity (result in words) [1]: very hygroscopic | moisture content at 25% RH [1]: 4.929% | moisture content at 55% RH [1]: 11.27% | moisture content at 75% RH (variation in the moisture content) [1]: 18.11% | moisture content at 75% RH (variation in the moisture content) ([1]; listed as magnesium salt): 18%

Source: patent US10583127B2, “Amine salt of (1R, 3S)-3-(5-cyano-4-phenyl-1,3- thiazol-2-ylcarbamoyl)cyclopentane carboxylic acid” (PALOBIOFARMA, S.L., priority 2017, dated 2020)
